Test results from the NIST ThermoML archive (doi:10.1021/acs.jced.8b00201).

Experiment: xn = mol fraction of the nth substance listed
Settings: 100 kPa, Liquid; for viscosity: Concentric cylinders viscometry; for mass density: Vibrating tube method

O=C1CCCCC1 [cyclohexanone] + CCCCCCCCO
Settings | mass density [kg/m3] | viscosity [mPa·s]
293.15 K, x1 = 0.0803 | 831.3 | 7.76
293.15 K, x1 = 0.1519 | 837.4 | 6.62
293.15 K, x1 = 0.2388 | 845.2 | 5.58
293.15 K, x1 = 0.3427 | 855.4 | 4.48
293.15 K, x1 = 0.4378 | 865.6 | 3.72
293.15 K, x1 = 0.5606 | 880 | 2.97
293.15 K, x1 = 0.6498 | 891.6 | 2.57
293.15 K, x1 = 0.7407 | 904.5 | 2.33
293.15 K, x1 = 0.8422 | 920.4 | 2.28
293.15 K, x1 = 0.9377 | 937.4 | 2.25
293.15 K, x1 = 1 | 948.8 | 2.3
298.15 K, x1 = 0.0803 | 827.7 | 6.52
298.15 K, x1 = 0.1519 | 833.6 | 5.65
298.15 K, x1 = 0.2388 | 841.3 | 4.8
298.15 K, x1 = 0.3427 | 851.2 | 3.91
298.15 K, x1 = 0.4378 | 861.2 | 3.29
298.15 K, x1 = 0.5606 | 875.4 | 2.66
298.15 K, x1 = 0.6498 | 886.8 | 2.32
298.15 K, x1 = 0.7407 | 899.5 | 2.13
298.15 K, x1 = 0.8422 | 915.1 | 2.07
298.15 K, x1 = 0.9377 | 931.4 | 2.04
298.15 K, x1 = 1 | 943.1 | 2.09
303.15 K, x1 = 0.0803 | 824.1 | 5.54
303.15 K, x1 = 0.1519 | 829.8 | 4.87
303.15 K, x1 = 0.2388 | 837.4 | 4.17
303.15 K, x1 = 0.3427 | 847.2 | 3.44
303.15 K, x1 = 0.4378 | 857 | 2.94
303.15 K, x1 = 0.5606 | 871.1 | 2.42
303.15 K, x1 = 0.6498 | 882.3 | 2.16
303.15 K, x1 = 0.7407 | 894.9 | 1.97
303.15 K, x1 = 0.8422 | 910.4 | 1.9
303.15 K, x1 = 0.9377 | 926.6 | 1.87
303.15 K, x1 = 1 | 938.2 | 1.91
308.15 K, x1 = 0.0803 | 820.5 | 4.73
308.15 K, x1 = 0.1519 | 826.1 | 4.16
308.15 K, x1 = 0.2388 | 833.6 | 3.61
308.15 K, x1 = 0.3427 | 843.2 | 3.03
308.15 K, x1 = 0.4378 | 852.9 | 2.6
308.15 K, x1 = 0.5606 | 866.8 | 2.15
308.15 K, x1 = 0.6498 | 877.9 | 1.94
308.15 K, x1 = 0.7407 | 890.4 | 1.79
308.15 K, x1 = 0.8422 | 905.9 | 1.74
308.15 K, x1 = 0.9377 | 922 | 1.72
308.15 K, x1 = 1 | 933.5 | 1.75
313.15 K, x1 = 0.0803 | 816.8 | 4.07
313.15 K, x1 = 0.1519 | 822.4 | 3.6
313.15 K, x1 = 0.2388 | 829.7 | 3.12
313.15 K, x1 = 0.3427 | 839.2 | 2.63
313.15 K, x1 = 0.4378 | 848.8 | 2.3
313.15 K, x1 = 0.5606 | 862.5 | 1.95
313.15 K, x1 = 0.6498 | 873.6 | 1.75
313.15 K, x1 = 0.7407 | 886 | 1.64
313.15 K, x1 = 0.8422 | 901.3 | 1.6
313.15 K, x1 = 0.9377 | 917.3 | 1.57
313.15 K, x1 = 1 | 928.8 | 1.6
318.15 K, x1 = 0.0803 | 813.1 | 3.51
318.15 K, x1 = 0.1519 | 818.6 | 3.11
318.15 K, x1 = 0.2388 | 825.8 | 2.73
318.15 K, x1 = 0.3427 | 835.2 | 2.32
318.15 K, x1 = 0.4378 | 844.7 | 2.04
318.15 K, x1 = 0.5606 | 858.4 | 1.75
318.15 K, x1 = 0.6498 | 869.3 | 1.6
318.15 K, x1 = 0.7407 | 881.6 | 1.5
318.15 K, x1 = 0.8422 | 896.9 | 1.46
318.15 K, x1 = 0.9377 | 912.9 | 1.44
318.15 K, x1 = 1 | 924.4 | 1.46
323.15 K, x1 = 0.0803 | 809.5 | 3.03
323.15 K, x1 = 0.1519 | 814.9 | 2.73
323.15 K, x1 = 0.2388 | 822.1 | 2.42
323.15 K, x1 = 0.3427 | 831.5 | 2.09
323.15 K, x1 = 0.4378 | 841 | 1.85
323.15 K, x1 = 0.5606 | 854.6 | 1.6
323.15 K, x1 = 0.6498 | 865.5 | 1.46
323.15 K, x1 = 0.7407 | 877.9 | 1.37
323.15 K, x1 = 0.8422 | 893.2 | 1.34
323.15 K, x1 = 0.9377 | 909.2 | 1.32
323.15 K, x1 = 1 | 920.7 | 1.34

O=C1CCCCC1 [cyclohexanone] + CCCCCCO
Settings | mass density [kg/m3] | viscosity [mPa·s]
293.15 K, x1 = 0.0818 | 827.6 | 4.66
293.15 K, x1 = 0.1594 | 836.2 | 4.06
293.15 K, x1 = 0.2401 | 845.5 | 3.55
293.15 K, x1 = 0.3467 | 858.2 | 2.97
293.15 K, x1 = 0.4439 | 870.2 | 2.55
293.15 K, x1 = 0.564 | 885.7 | 2.18
293.15 K, x1 = 0.6501 | 897.3 | 2.02
293.15 K, x1 = 0.7381 | 909.5 | 1.97
293.15 K, x1 = 0.8512 | 925.9 | 2
293.15 K, x1 = 0.9426 | 939.8 | 2.13
293.15 K, x1 = 1 | 948.8 | 2.3
298.15 K, x1 = 0.0818 | 823.8 | 4.03
298.15 K, x1 = 0.1594 | 832.2 | 3.54
298.15 K, x1 = 0.2401 | 841.3 | 3.12
298.15 K, x1 = 0.3467 | 853.7 | 2.63
298.15 K, x1 = 0.4439 | 865.5 | 2.3
298.15 K, x1 = 0.564 | 880.7 | 1.98
298.15 K, x1 = 0.6501 | 892.1 | 1.86
298.15 K, x1 = 0.7381 | 904.2 | 1.81
298.15 K, x1 = 0.8512 | 920.5 | 1.84
298.15 K, x1 = 0.9426 | 934.7 | 1.95
298.15 K, x1 = 1 | 943.1 | 2.09
303.15 K, x1 = 0.0818 | 820 | 3.47
303.15 K, x1 = 0.1594 | 828.3 | 3.07
303.15 K, x1 = 0.2401 | 837.2 | 2.72
303.15 K, x1 = 0.3467 | 849.5 | 2.33
303.15 K, x1 = 0.4439 | 861.1 | 2.05
303.15 K, x1 = 0.564 | 876.2 | 1.8
303.15 K, x1 = 0.6501 | 887.5 | 1.71
303.15 K, x1 = 0.7381 | 899.5 | 1.67
303.15 K, x1 = 0.8512 | 915.6 | 1.7
303.15 K, x1 = 0.9426 | 929.8 | 1.79
303.15 K, x1 = 1 | 938.2 | 1.91
308.15 K, x1 = 0.0818 | 816.3 | 3.04
308.15 K, x1 = 0.1594 | 824.4 | 2.71
308.15 K, x1 = 0.2401 | 833.2 | 2.41
308.15 K, x1 = 0.3467 | 845.3 | 2.09
308.15 K, x1 = 0.4439 | 856.8 | 1.87
308.15 K, x1 = 0.564 | 871.8 | 1.67
308.15 K, x1 = 0.6501 | 883 | 1.59
308.15 K, x1 = 0.7381 | 894.9 | 1.55
308.15 K, x1 = 0.8512 | 911 | 1.58
308.15 K, x1 = 0.9426 | 925.1 | 1.64
308.15 K, x1 = 1 | 933.5 | 1.75
313.15 K, x1 = 0.0818 | 812.4 | 2.66
313.15 K, x1 = 0.1594 | 820.5 | 2.39
313.15 K, x1 = 0.2401 | 829.2 | 2.14
313.15 K, x1 = 0.3467 | 841.1 | 1.86
313.15 K, x1 = 0.4439 | 852.5 | 1.68
313.15 K, x1 = 0.564 | 867.3 | 1.51
313.15 K, x1 = 0.6501 | 878.5 | 1.45
313.15 K, x1 = 0.7381 | 890.3 | 1.42
313.15 K, x1 = 0.8512 | 906.3 | 1.45
313.15 K, x1 = 0.9426 | 920.4 | 1.51
313.15 K, x1 = 1 | 928.8 | 1.6
318.15 K, x1 = 0.0818 | 808.7 | 2.33
318.15 K, x1 = 0.1594 | 816.7 | 2.1
318.15 K, x1 = 0.2401 | 825.3 | 1.9
318.15 K, x1 = 0.3467 | 837.1 | 1.68
318.15 K, x1 = 0.4439 | 848.4 | 1.52
318.15 K, x1 = 0.564 | 863.1 | 1.38
318.15 K, x1 = 0.6501 | 874.2 | 1.33
318.15 K, x1 = 0.7381 | 886 | 1.31
318.15 K, x1 = 0.8512 | 901.9 | 1.33
318.15 K, x1 = 0.9426 | 916 | 1.39
318.15 K, x1 = 1 | 924.4 | 1.46
323.15 K, x1 = 0.0818 | 804.9 | 2.05
323.15 K, x1 = 0.1594 | 812.8 | 1.86
323.15 K, x1 = 0.2401 | 821.4 | 1.7
323.15 K, x1 = 0.3467 | 833.2 | 1.51
323.15 K, x1 = 0.4439 | 844.5 | 1.39
323.15 K, x1 = 0.564 | 859.2 | 1.28
323.15 K, x1 = 0.6501 | 870.3 | 1.23
323.15 K, x1 = 0.7381 | 882.2 | 1.22
323.15 K, x1 = 0.8512 | 898.1 | 1.23
323.15 K, x1 = 0.9426 | 912.2 | 1.27
323.15 K, x1 = 1 | 920.7 | 1.34
